# In patent US8569327B2, “Phenanthroindolizidine derivative and NFκB inhibitor containing same as active ingredient” (Kabushiki Kaisha Yakult Honsha, priority 2008, dated 2013):
# Marks after values point to notes of the source that are not given here.
# Experiments:
# [1] = system: human non-small cell lung cancer A549 cells; test: Inhibitory action on the proliferation of A549 cells; format: cell-based; settings: 96 hours, TetraColor ONE; for IC50: Homo sapiens, A549
# Summary of the method: (§1)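 Cells seeded overnight (SW480 2000/well in 10% FBS/RPMI1640; A549, HT-29 1000/well in 10% FBS DMEM or DMEM F12 HAM), then compound-treated at 37 °C, 5% CO2 for 48 h (SW480) or 96 h (A549, HT-29). Viable cells counted by TetraColor ONE; IC50 for 50% proliferation inhibition.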
# [2] = system: human colon cancer HT-29 cells; test: Inhibitory action on the proliferation of HT-29 cells; format: cell-based; settings: 96 hours, TetraColor ONE; for IC50: Homo sapiens, HT-29
# Summary of the method: as §1
# NFκB = test: Inhibitory action on the NFκB activity, luciferase assay in SW480/NRE-Luc cells; format: cell-based, human; settings: for NFκB inhibitory activity IC50: SW480/NRE-Luc cells, compound 1 h then 50 ng/mL TNFα 4 h, luciferase; for IC50: Homo sapiens, SW480, read-out: NFκB inhibitory activity IC50
# Summary of the method: (§2)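 Stable SW480 colon cancer lines carried luciferase driven by a 5× NFκB response element or by the SV40 promoter. Compound was added 1 h before 50 ng/mL TNFα, followed by 4 h culture at 37 °C; luminescence was read and IC50 taken as 50% inhibition of induced luciferase expression.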
# [3] = system: human colon cancer SW480 cells; test: Inhibitory action on the proliferation of SW480 cells; format: cell-based; settings: 48 hours, TetraColor ONE; for IC50: Homo sapiens, SW480
# Summary of the method: as §1
# [4] = system: mice transplanted with mouse fibrosarcoma Meth A cells; test: Animal toxicity test; format: in vivo; settings: intravenous days 1, 5, 9, observed three weeks
# Description: Also, the toxicity of known phenanthroindolizidine alkaloid compounds, namely (12aS,13S)-6,7-dimethoxy-9,10,11,12,12a,13-hexahydro-9a-aza-cyclopenta[b]triphenylene-3,13-diol (known compound 1; refer to WO01/023384) and (12aS,13S)-3,6,7-trimethoxy-9,10,11,12,12a,13-hexahydro-9a-aza-cyclopenta[b]triphenylene-13-ol (known compound 2; refer to Planta Med., 2002, 68: 186-188), was simultaneously studied. To a control group, a physiological saline solution, a solvent, was administered. As a result, as shown in the following Tables 35 and 36, all the mice survived in a group administered with the compound of the present invention.
# SV40 promoter = SV40 promoter activity, luciferase assay in SW480/SV40-Luc cells; format: cell-based, human; settings: for SV40 promoter inhibitory activity IC50: SW480/SV40-Luc cells, luciferase; for IC50: Homo sapiens, SW480, read-out: SV40 promoter inhibitory activity IC50
# Summary of the method: as §2
# [5] = system: mouse fibrosarcoma Meth A cells; test: Antitumor effect in mice transplanted with mouse fibrosarcoma Meth A cells; format: in vivo; settings: intravenous on days 1, 5, 9, tumor weight day 21, BALB/c mice
# Description: The antitumor effect of the phenanthroindolizidine alkaloid compound of the present invention in vivo was studied using mice transplanted with mouse fibrosarcoma Meth A cells. Meth A cells were transplanted subcutaneously in the inguinal region of male 7-week-old BALB/c mice (2.5×10^5 cells/mouse). Subsequently, on days 1, 5, and 9, the compound of the present invention was intravenously administered. To a control group, physiological saline, a solvent, was administered. On day 21 after the cell transplantation, tumor was excised and measured for its weight, and subsequently a tumor growth-inhibition rate IR (%) was obtained by the following formula. Tumor growth-inhibition rate IR (%)=(1−the weight of the tumor in an administration group/the weight of the tumor in a control group)×100
SMILES,A549 proliferation inhibitory action IC50 [1] [ng/mL],HT-29 proliferation inhibitory action IC50 [2] [ng/mL],NFκB inhibitory activity IC50 (NFκB) [ng/mL],SW480 proliferation inhibitory action IC50 [3] [ng/mL],Mortality rate ([4]; total dose 25 mg/kg),Mortality rate ([4]; total dose 50 mg/kg),SV40 promoter inhibitory activity IC50 (SV40 promoter) [ng/mL],IC50 [1] [ng/mL],IC50 [2] [ng/mL],IC50 (NFκB) [ng/mL],IC50 [3] [ng/mL],IC50 (SV40 promoter) [ng/mL],Tumor growth inhibition rate IR ([5]; total dose 25 mg/kg),Tumor growth inhibition rate IR ([5]; total dose 50 mg/kg) [%]
"COc1cc2c3c(c4ccc(OC(=O)c5cccs5)cc4c2cc1OC)[C@H](O)[C@@H]1CCCN1C3.Cl [Compound 19, thiophene-2-carboxylic acid(12aS,13S)-13-hydroxy-6,7-dimethoxy-9,10,11,12,12a,13-hexahydro-9a-aza-cyclopenta[b]triphenylene-3-yl ester hydrochloride]",0.82,1.69,3.0,1.3,0/5,0/5,>100,,,,,,,
"CCc1ccc2c3c(c4cc(OC)c(OC)cc4c2c1)CN1CCC[C@@H]1[C@@H]3O.Cl [Compound 4, (12aR,13R)-3-ethyl-6,7-dimethoxy-9,10,11,12,12a,13-hexahydro-9a-aza-cyclopenta[b]triphenylene-13-ol hydrochloride]",,,,,0/5,0/5,,101,121,201,513,> 10000,,
"COc1cc2c3c(c4ccc(OC(=O)N(C)C)cc4c2cc1OC)[C@H](O)[C@@H]1CCCN1C3.Cl [Compound 21, dimethyl-carbamic acid(12aS,13S)-13-hydroxy-6,7-dimethoxy-9,10,11,12,12a,13-hexahydro-9a-aza-cyclopenta[b]triphenylene-3-yl ester hydrochloride]",16.4,24.2,23.3,38.3,0/5,0/5,>10000,,,,,,,
"C#CCOC(=O)Oc1ccc2c3c(c4cc(OC)c(OC)cc4c2c1)CN1CCC[C@H]1[C@H]3O.Cl [Compound 27, carbonic acid(12aS,13S)-13-hydroxy-6,7-dimethoxy-9,10,11,12,12a,13-hexahydro-9a-aza-cyclopenta[b]triphenylene-3-yl ester-propyn-2-yl ester hydrochloride]",0.025,0.055,0.37,0.66,0/5,0/5,>10,,,,,,,
"COC(=O)CCC(=O)Oc1ccc2c3c(c4cc(OC)c(OC)cc4c2c1)CN1CCC[C@H]1[C@H]3O.Cl [Compound 16, succinic acid(12aS,13S)-13-hydroxy-6,7-dimethoxy-9,10,11,12,12a,13-hexahydro-9a-aza-cyclopenta[b]triphenylene-3-yl ester methyl ester hydrochloride]",0.59,0.17,0.37,0.76,,,>100,,,,,,48.8* %,39.1
"COC(=O)Oc1ccc2c3c(c4cc(OC)c(OC)cc4c2c1)CN1CCC[C@H]1[C@H]3O.Cl [Compound 17, carbonic acid(12aS,13S)-13-hydroxy-6,7-dimethoxy-9,10,11,12,12a,13-hexahydro-9a-aza-cyclopenta[b]triphenylene-3-yl ester methyl ester hydrochloride]",0.53,0.067,0.83,0.63,,,>100,,,,,,54.2* %,50.0
"COc1cc2c3c(c4ccccc4c2cc1OC)[C@@H](O)[C@H]1CCCN1C3.Cl [Compound 2, (12aR,13R)-6,7-dimethoxy-9,10,11,12,12a,13-hexahydro-9a-aza-cyclopenta[b]triphenylene-13-ol hydrochloride]",,,,,0/5,0/5,,211,204,387,1020,> 10000,,
"COc1cc2c3c(c4ccc(OC(=O)c5ccco5)cc4c2cc1OC)C[C@@H]1CCCN1C3.Cl [Compound 38, furan-2-carboxylic acid(S)-6,7-dimethoxy-9,10,11,12,12a,13-hexahydro-9a-aza-cyclopenta[b]triphenylene-3-yl ester hydrochloride]",1.1,3.2,0.50,0.62,0/5,0/5,>1000,,,,,,,
"COc1cc2c3c(c4ccc(F)cc4c2cc1OC)C[C@@H]1CCCN1C3.Cl [Compound 31, (S)-3-fluoro-6,7-dimethoxy-9,10,11,12,12a,13-hexahydro-9a-aza-cyclopenta[b]triphenylene hydrochloride]",,,,,0/5,0/5,,1.5,10.6,28.8,50.2,> 1000,,
"COc1cc2c3c(c4ccccc4c2cc1OC)C[C@@H]1CCCN1C3.Cl [Compound 32, (S)-6,7-dimethoxy-9,10,11,12,12a,13-hexahydro-9a-aza-cyclopenta[b]triphenylene hydrochloride]",,,,,0/5,0/5,,0.7,3.1,27.8,39.3,> 100,,
"COc1cc2c3c(c4cc(O)ccc4c2cc1OC)C[C@@H]1CCCN1C3.Cl [Compound 33, (S)-6,7-dimethoxy-9,10,11,12,12a,13-hexahydro-9a-aza-cyclopenta[b]triphenylene-2-ol hydrochloride]",,,,,0/5,0/5,,0.97,6.4,5.3,10.8,> 100,,
"COc1cc2c3c(c4cc(O)ccc4c2cc1OC)[C@H](O)[C@@H]1CCCN1C3.Cl [Compound 29, (12aS,13S)-6,7-dimethoxy-9,10,11,12,12a,13-hexahydro-9a-aza-cyclopenta[b]triphenylene-2,13-diol hydrochloride]",,,,,0/5,0/5,,1.7,2.5,1.4,4,> 1000,,
"COc1cc2c3c(c4ccc(OC(=O)N5CCC(N6CCCCC6)CC5)cc4c2cc1OC)[C@H](O)[C@@H]1CCCN1C3 [Compound 13, [1,4′]bipiperidinyl-1′-carboxylic acid(12aS,13S)-13-hydroxy-6,7-dimethoxy-9,10,11,12,12a,13-hexahydro-9a-aza-cyclopenta[b]triphenylene-3-yl ester]",7.4,21.6,20.3,19.5,0/5,0/5,>1000,,,,,,,
"CCOC(=O)Oc1ccc2c3c(c4cc(OC)c(OC)cc4c2c1)CN1CCC[C@H]1[C@H]3O.Cl [Compound 28, carbonic acid ethyl ester(12aS,13S)-13-hydroxy-6,7-dimethoxy-9,10,11,12,12a,13-hexahydro-9a-aza-cyclopenta[b]triphenylene-3-yl ester hydrochloride]",0.037,0.064,1.0,0.65,0/5,0/5,>10,,,,,,,
